# Data published in PubChem BioAssay AID2060602 (Molecular Pharmacology Branch, DTP, NCI, 2025).
# pIC50: −log10 of the molar value. Where “and” joins values, the source holds several entries; their conditions need not be identical. Equal values may be shown once.
# System: 648629-189-R-J1-PDC complex spheroids viability
# Test: Anticancer human tumor 648629-189-R-J1-PDC patient-derived bladder carcinoma cell line growth inhibition [CLK]
# Details: for viability, T/C: stronger effect = lower value
# Summary of the method: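 Multi-cell-type spheroids combined patient-derived tumor cells with HUVEC endothelial cells and human mesenchymal stem cells. Paired agents were dosed in half-log steps down from about clinical Cmax, or from 10 microM where Cmax was unknown.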
# [1] = curve of first compound, second compound 0.0316 µM
# [2] = curve of first compound, second compound 0.1 µM
# [3] = curve of first compound, second compound 0.316 µM
# [4] = curve of first compound, second compound 1 µM
# [5] = curve of first compound, second compound 3.16 µM
# [6] = curve of first compound, second compound 10 µM
# 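Throughout, for viability, T/C: drug exposure lasted seven days before viability readout; 100% = DMSO vehicle control wells.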
smiles,measurement,setting,value
C=CC(=O)Nc1cc(Nc2nccc(-c3cn(C)c4ccccc34)n2)c(OC)cc1N(C)CCN(C)C + CN1CCN(c2cc(C(=O)Nc3cc4cc(-c5cnn(C)c5)ccc4cn3)ccn2)CC1,pIC50,[1],< 6.52
same,pIC50,[2],< 6.52
same,pIC50,[3],> 9.02
same,pIC50,[4],> 9.02
same,pIC50,[5],> 9.02
same,pIC50,[6],> 9.02
same,"viability, T/C","second compound 0.0316 µM, first compound 0.000949 µM",104%
same,"viability, T/C","second compound 0.0316 µM, first compound 0.003 µM",109%
same,"viability, T/C","second compound 0.0316 µM, first compound 0.00949 µM",112%
same,"viability, T/C","second compound 0.0316 µM, first compound 0.03 µM",115%
same,"viability, T/C","second compound 0.0316 µM, first compound 0.0949 µM",110%
same,"viability, T/C","second compound 0.0316 µM, first compound 0.3 µM",91.6%
same,"viability, T/C","second compound 0.1 µM, first compound 0.000949 µM",104%
same,"viability, T/C","second compound 0.1 µM, first compound 0.003 µM",117%
same,"viability, T/C","second compound 0.1 µM, first compound 0.00949 µM",103%
same,"viability, T/C","second compound 0.1 µM, first compound 0.03 µM",103%
same,"viability, T/C","second compound 0.1 µM, first compound 0.0949 µM",99.1%
same,"viability, T/C","second compound 0.1 µM, first compound 0.3 µM",93%
same,"viability, T/C","second compound 0.316 µM, first compound 0.000949 µM",31.4%
same,"viability, T/C","second compound 0.316 µM, first compound 0.003 µM",42.5%
same,"viability, T/C","second compound 0.316 µM, first compound 0.00949 µM",40.7%
same,"viability, T/C","second compound 0.316 µM, first compound 0.03 µM",35.6%
same,"viability, T/C","second compound 0.316 µM, first compound 0.0949 µM",33.8%
same,"viability, T/C","second compound 0.316 µM, first compound 0.3 µM",23.6%
same,"viability, T/C","second compound 1 µM, first compound 0.000949 µM",0.28%
same,"viability, T/C","second compound 1 µM, first compound 0.003 µM",0.35%
same,"viability, T/C","second compound 1 µM, first compound 0.00949 µM",1.06%
same,"viability, T/C","second compound 1 µM, first compound 0.03 µM",0.49%
same,"viability, T/C","second compound 1 µM, first compound 0.0949 µM",0.24%
same,"viability, T/C","second compound 1 µM, first compound 0.3 µM",0.19%
same,"viability, T/C","second compound 3.16 µM, first compound 0.000949 µM",0.13%
same,"viability, T/C","second compound 3.16 µM, first compound 0.003 µM",0.19%
same,"viability, T/C","second compound 3.16 µM, first compound 0.00949 µM",0.15%
same,"viability, T/C","second compound 3.16 µM, first compound 0.03 µM",0.14%
same,"viability, T/C","second compound 3.16 µM, first compound 0.0949 µM",0.82%
same,"viability, T/C","second compound 3.16 µM, first compound 0.3 µM",0.77%
same,"viability, T/C","second compound 10 µM, first compound 0.000949 µM",0.24%
same,"viability, T/C","second compound 10 µM, first compound 0.003 µM",2.1%
same,"viability, T/C","second compound 10 µM, first compound 0.00949 µM",0.19%
same,"viability, T/C","second compound 10 µM, first compound 0.03 µM",0.23%
same,"viability, T/C","second compound 10 µM, first compound 0.0949 µM",0.24%
same,"viability, T/C","second compound 10 µM, first compound 0.3 µM",0.21%
CCc1c2c(nc3ccc(O)cc13)-c1cc3c(c(=O)n1C2)COC(=O)[C@]3(O)CC + CNC(=O)c1ccc(Nc2nc(OC3CCCC3)c3c(-c4ccc5nc(C)oc5c4)c[nH]c3n2)c(OC)c1,pIC50,[1],> 8.50
same,pIC50,[2],> 8.50
same,pIC50,[3],> 8.50
same,pIC50,[4],> 8.50
same,pIC50,[5],> 8.50
same,pIC50,[6],> 8.50
same,"viability, T/C","second compound 0.0316 µM, first compound 0.00316 µM",30.3%
same,"viability, T/C","second compound 0.0316 µM, first compound 0.01 µM",11.5%
same,"viability, T/C","second compound 0.0316 µM, first compound 0.0316 µM",8.79%
same,"viability, T/C","second compound 0.0316 µM, first compound 0.1 µM",5.84%
same,"viability, T/C","second compound 0.0316 µM, first compound 0.316 µM",5.59%
same,"viability, T/C","second compound 0.0316 µM, first compound 1 µM",4.59%
same,"viability, T/C","second compound 0.1 µM, first compound 0.00316 µM",30.1%
same,"viability, T/C","second compound 0.1 µM, first compound 0.01 µM",10.5%
same,"viability, T/C","second compound 0.1 µM, first compound 0.0316 µM",7.18%
same,"viability, T/C","second compound 0.1 µM, first compound 0.1 µM",5.66%
same,"viability, T/C","second compound 0.1 µM, first compound 0.316 µM",5.26%
same,"viability, T/C","second compound 0.1 µM, first compound 1 µM",2.75%
same,"viability, T/C","second compound 0.316 µM, first compound 0.00316 µM",14.1%
same,"viability, T/C","second compound 0.316 µM, first compound 0.01 µM",8.48%
same,"viability, T/C","second compound 0.316 µM, first compound 0.0316 µM",7.05%
same,"viability, T/C","second compound 0.316 µM, first compound 0.1 µM",4.87%
same,"viability, T/C","second compound 0.316 µM, first compound 0.316 µM",5.55%
same,"viability, T/C","second compound 0.316 µM, first compound 1 µM",4.88%
same,"viability, T/C","second compound 1 µM, first compound 0.00316 µM",11.9%
same,"viability, T/C","second compound 1 µM, first compound 0.01 µM",10.9%
same,"viability, T/C","second compound 1 µM, first compound 0.0316 µM",8.46%
same,"viability, T/C","second compound 1 µM, first compound 0.1 µM",5.17%
same,"viability, T/C","second compound 1 µM, first compound 0.316 µM",4.53%
same,"viability, T/C","second compound 1 µM, first compound 1 µM",3.56%
same,"viability, T/C","second compound 3.16 µM, first compound 0.00316 µM",14.8%
same,"viability, T/C","second compound 3.16 µM, first compound 0.01 µM",13.1%
same,"viability, T/C","second compound 3.16 µM, first compound 0.0316 µM",9.98%
same,"viability, T/C","second compound 3.16 µM, first compound 0.1 µM",6.24%
same,"viability, T/C","second compound 3.16 µM, first compound 0.316 µM",7.38%
same,"viability, T/C","second compound 3.16 µM, first compound 1 µM",5.35%
same,"viability, T/C","second compound 10 µM, first compound 0.00316 µM",17.2%
same,"viability, T/C","second compound 10 µM, first compound 0.01 µM",13.8%
same,"viability, T/C","second compound 10 µM, first compound 0.0316 µM",10.4%
same,"viability, T/C","second compound 10 µM, first compound 0.1 µM",7.91%
same,"viability, T/C","second compound 10 µM, first compound 0.316 µM",6.48%
same,"viability, T/C","second compound 10 µM, first compound 1 µM",4.98%
COc1cccc2c1C(=O)c1c(O)c3c(c(O)c1C2=O)CC(O)(C(=O)CO)CC3OC1CC(N)C(O)C(C)O1 (stereo not drawn),"viability, T/C",compound 0.0316 µM,32.3% and 23%
same,"viability, T/C",compound 0.1 µM,16.2%
same,"viability, T/C",compound 0.316 µM,7.93% and 6.42%
same,"viability, T/C",compound 1 µM,0.61% and 0.54%
same,"viability, T/C",compound 3.16 µM,0.12% and 0.15%
same,"viability, T/C",compound 10 µM,0.13% and 0.14%
same,pIC50,curve of compound,> 7.50
Nc1ccccc1NC(=O)c1ccc(CNC(=O)OCc2cccnc2)cc1,"viability, T/C",compound 0.0316 µM,115% and 88%
same,"viability, T/C",compound 0.1 µM,92.5% and 91.6%
same,"viability, T/C",compound 0.316 µM,88.5% and 77.7%
same,"viability, T/C",compound 1 µM,72.7% and 64%
same,"viability, T/C",compound 3.16 µM,33% and 24.8%
same,"viability, T/C",compound 10 µM,4.51% and 3.32%
same,pIC50,curve of compound,5.71 and 5.84
